Literature values as cited in patent US5668151A, “Dihydropyridine NPY antagonists: piperidine derivatives” (Bristol-Myers Squibb Company, priority 1996, dated 1997).

What was measured:
[1] = tested on: rat femoral artery
[2] = tested on: NPY-induced Ca++ entry in HEL cells

Compound | effect on the vasoconstrictive activity of the NPY1 agonist [Leu31, Pro34]NPY [1] | effect on the NPY2 agonist NPY13-36 ([1]; Y2 receptor functional selectivity) | pA2 [2]
N=C(N)N(CCCCCCNCc1ccc2ccccc2c1)CCCCCCN(CCCCCCNCc1ccc2ccccc2c1)C(=N)N [Example 6b] | no effect | antagonized | 
N=C(NCCCc1cnc[nH]1)NCCC(c1cc(F)cc(F)c1)c1ccccn1 (stereo not drawn) [He 90481] |  |  | 4.43
